The values that follow come from patent US20010007679A1, “(S,R) FORMOTEROL METHODS AND COMPOSITIONS” (priority 1999, published 2001).

SMILES strings stand for the structures. A value given as a limit tells only on which side of the number the result lay.

Assay [1] has as its target human β2-adrenergic receptor (Homo sapiens, UniProt P07550). The assay can be described thus: Second series: binding competition, human β2. As to conditions: for IC50: IC50 (nM) β2, Second series (human); for β2 Selectivity (β1/β2): Second series (human). The protocol:
(R,S)- and (S,R)-desformoterol were screened, in duplicate at three concentrations (10^−9, 10^−7, 10^−5 M), for binding to human β1 and β2-adrenergic receptors. Compounds that inhibited specific binding ≧50% were then tested further at ten concentrations in duplicate in order to obtain full competition curves. Reference compounds were simultaneously tested at eight concentrations.

Assay [2] addresses human β1-adrenergic receptor (Homo sapiens, UniProt P08588). The assay can be described thus: Second series: binding competition, human β1. As to conditions: for IC50: IC50 (nM) β1, Second series (human).
Another assay has as its system BEAS-2B cells. The assay can be described thus: Intrinsic activity: cAMP production by radioimmunoassay. The class given is cell-based. As to conditions: 100-times the Kd concentration, relative to isoproterenol (set to 1.0). Here is the method: The assessment of intrinsic activity was evaluated in BEAS-2B cells grown to confluence. […] Samples were assayed for cAMP by radioimmunoassay.
(cAMP levels reflect the balance of adenylyl cyclase and phosphodiesterase activity.)

As usually defined, the IC50 is the point on the concentration scale where inhibition reaches its midpoint. In general, inhibition refers to how much of the control response was suppressed.

Chain of human β2-adrenergic receptor (P07550 whole entry): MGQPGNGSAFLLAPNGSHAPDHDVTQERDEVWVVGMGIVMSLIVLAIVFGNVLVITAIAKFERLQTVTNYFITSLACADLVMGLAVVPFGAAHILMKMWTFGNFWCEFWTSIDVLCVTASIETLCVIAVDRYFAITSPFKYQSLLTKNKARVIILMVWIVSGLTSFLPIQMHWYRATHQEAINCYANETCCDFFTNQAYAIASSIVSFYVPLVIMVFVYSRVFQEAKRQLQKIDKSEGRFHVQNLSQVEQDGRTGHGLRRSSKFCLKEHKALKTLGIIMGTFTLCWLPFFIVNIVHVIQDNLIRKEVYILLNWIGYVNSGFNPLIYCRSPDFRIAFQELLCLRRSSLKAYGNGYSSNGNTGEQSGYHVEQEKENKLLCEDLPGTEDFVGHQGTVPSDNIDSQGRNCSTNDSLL
Chain of human β1-adrenergic receptor (P08588 whole entry): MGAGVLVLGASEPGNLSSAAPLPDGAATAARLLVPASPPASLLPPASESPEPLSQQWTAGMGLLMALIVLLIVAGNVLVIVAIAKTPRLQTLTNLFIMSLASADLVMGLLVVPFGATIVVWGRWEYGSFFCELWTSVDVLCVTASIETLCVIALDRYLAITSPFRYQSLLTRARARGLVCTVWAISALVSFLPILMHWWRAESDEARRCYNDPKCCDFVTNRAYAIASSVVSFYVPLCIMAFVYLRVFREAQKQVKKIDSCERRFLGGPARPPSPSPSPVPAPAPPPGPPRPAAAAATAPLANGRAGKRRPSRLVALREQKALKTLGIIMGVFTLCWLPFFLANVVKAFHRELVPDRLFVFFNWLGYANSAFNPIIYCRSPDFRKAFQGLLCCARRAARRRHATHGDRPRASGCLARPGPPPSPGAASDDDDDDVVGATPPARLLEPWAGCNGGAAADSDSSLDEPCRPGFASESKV

With `COc1ccc(CC(C)NCC(O)c2ccc(O)c(N)c2)cc1` (single isomer, unassigned) [(R,R)-Desformoterol, 3-Amino-4-hydroxy-α-[[[2-(4-methoxyphenyl)-1-methylethyl]amino]methyl]-benzenemethanol], in assay [1], the IC50 came to 35.6 nM and the “β2 Selectivity (β1/β2)” value was 89. The IC50 in assay [2] came to 3180 nM.
Regarding `COc1ccc(CC(C)NCC(O)c2ccc(O)c(N)c2)cc1` (single isomer, unassigned) [(R,S)-Desformoterol, 3-Amino-4-hydroxy-α-[[[2-(4-methoxyphenyl)-1-methylethyl]amino]methyl]-benzenemethanol], the figures for the concentration for half-maximal inhibition (IC50) in assay [1] and in assay [2] were 3140 nM and 1790 nM, respectively. The “β2 Selectivity (β1/β2)” value in assay [1] is 0.6.
As to `COc1ccc(CC(C)NCC(O)c2ccc(O)c(N)c2)cc1` (single isomer, unassigned) [(S,S)-Desformoterol, 3-Amino-4-hydroxy-α-[[[2-(4-methoxyphenyl)-1-methylethyl]amino]methyl]-benzenemethanol], the values for the concentration for half-maximal inhibition (IC50) in assay [1] and in assay [2] were over 10000 nM and 64700 nM, respectively.
With `CC(C)(C)NC[C@H](O)c1ccc(O)c(CO)c1` [(R)-Albuterol], in the assay on BEAS-2B cells, the “Intrinsic Activity (cAMP)” value is on record as 0.44.
With `COc1ccc(CC(C)NCC(O)c2ccc(O)c(N)c2)cc1` [(R,R/S,S)-Desformoterol, 3-Amino-4-hydroxy-α-[[[2-(4-methoxyphenyl)-1-methylethyl]amino]methyl]-benzenemethanol], in assay [1], the IC50 was 81.3 nM and the “β2 Selectivity (β1/β2)” value amounted to 63. This compound also returned a concentration for half-maximal inhibition (IC50) in assay [2] of 5140 nM.
With `COc1ccc(C[C@@H](C)NCC(O)c2ccc(O)c(N)c2)cc1` (stereo partly drawn) [(S,R)-Desformoterol, 3-Amino-4-hydroxy-α-[[[2-(4-methoxyphenyl)-1-methylethyl]amino]methyl]-benzenemethanol], the IC50 in assay [1] was 1830 nM. Moreover, the inhibition at 10 µM in assay [2] (read-out: inhibition of specific binding at β1) was found to be 22%.
Turning to `CC(C)NCC(O)c1ccc(O)c(O)c1` (stereo not drawn) [Isoproterenol], the “Intrinsic Activity (cAMP)” value in the assay on BEAS-2B cells came to 1.00.
